In patent publication US10288604B2, “Method for imaging cell using fluorescence-labeled sugar derivative having coumarin derivative bound thereto, and imaging agent” (HIROSAKI UNIVERSITY, priority 2012, dated 2019):

Legend:
[1] = test system: neurons acutely dissociated from mouse midbrain substantia nigra pars reticulata; assay: Application of fluorescent sugar derivatives to acutely dissociated normal neurons (confocal imaging of uptake); format: cell-based
Procedure: This was conducted according to a method described in WO 2010/16587.
Living neurons were acutely dissociated from mouse midbrain substantia nigra pars reticulata, and to which a mixed solution containing 100 μM of 2-PBDG and 20 μM of 2-TRLG was administered at 37° C. for 5 minutes. FIGS. 1A to C represent confocal microscopic images taken immediately before this. A is a fluorescence image in blue wavelength region (Blue channel, wavelength range: 415-580 nm). The position of cells is recognized by autofluorescence. The fluorescence signal intensity is represented by pseudocolor. B is a fluorescence image in red wavelength region (Red channel, 580-740 nm). A and B were obtained both by simultaneous excitation using 405 nm Blue diode laser at an intensity of 60%, wherein photomultipliers (PMT) 1 and 2 were used respectively, and the detection sensitivity of PMT2 was raised higher than PMT1 so that the presence or absence of invasion of 2-TRLG can be detected in a sensitive manner. C is a view in which the bright field image is overlaid on the fluorescence images of A and B.
An experiment was conducted in the same manner as in Example 2.
FIGS. 2A to C represent confocal microscopic images immediately before administration of a mixed solution containing 100 μM of 2-PBLG and 20 μM of 2-TRLG at 37° C. to acutely dissociated neurons of mouse midbrain substantia nigra pars reticulata for 5 minutes.
FIG. 3 represents confocal microscopic images before and after administration of a mixed solution containing 100 μM of 2-HCDG and 20 μM of 2-TRLG at 37° C. for 3 minutes to neurons acutely dissociated from mouse midbrain substantia nigra pars reticulata. A and B are fluorescence images acquired before administration in Blue channel (415-580 nm) and Red channel (580-740 nm), respectively. The excitation wavelength is 405 nm. C is an image of differential interference (Differential Interference contrast, DIC). D is an overlay of the above-described images. E to H are the same as A to D, excepting that E to H are images acquired 4 minutes after initiation of washout of the fluorescence tracer solution after administration of the 2-HCDG+2-TRLG fluorescence tracer solution at 37° C. for 3 minutes. […] Since invasion of 2-TRLG into a cell is not observed, the plasma membrane of the neuron is thought to be maintained intactly.
Since the optimal excitation wavelength was as very low as 320 nm in this experiment, an image was acquired by Retiga-2000R CCD camera manufactured by Q-imaging via a custom-order filter constituted of an excitation filter (320 nm) (half width: 40 nm), a fluorescence filter (435 nm) (half width: 40 nm) and a dichroic mirror (409 nm), by a xenon lamp, using Nikon Ti-E real time deconvolution microscope.

[2] = test system: tumor cell cluster composed of mouse insulinoma cells (MIN6); assay: Imaging of tumor cell cluster composed of MIN6 cells (real time laser scanning confocal microscope); format: cell-based
Procedure: A culture solution prepared by suspending MIN6 cells at a proportion of 10×10^4 cells/mL was dropped in an amount of 10 μL on a glass cover slip, then, allowed to adhere to the glass surface, and 3 mL of the culture solution was added and cultured. The half quantity of the culture solution was changed every three days.
Cryopreserved MIN6 cells (cells donated from Professor Miyazaki Junichi of Osaka University and cultured 5 to 8 passages) were subjected to culture according to an ordinary method, and cultured 7 to 9 passages which were used in experiments. The half amount of the culture solution was changed every two days.
NaCl 120.0 mM, KCl 4.75 mM, KH2 PO4 1.19 mM, MgSO4.7H2O 1.19 mM, CaCl2.2H2O 1 mM, NaHCO3 5.02 mM, D-Glucose 5.6 mM, HEPES 10 mM (adjusted to pH 7.35 with 1M NaOH). For inhibiting entrance and elimination of fluorescently labeled glucose via a gap junction/hemichannel, 0.1 mM Carbenoxolone (SIGMA #C4790) was added. The HEPES solution for image acquisition was used as a solution for preparing a 2-PBLG solution and as a solution for preparing a 2-PBLG/2-TRLG solution and 2-PBLG/2-NBDLG/2-TRLG solution.
A glass cover slip wherein MIN6 cells had been cultured was transferred into a HEPES solution for image acquisition in a perfusion chamber set on a universal stage (Leica 11600234) on a confocal laser scanning microscope (TCS SP5 available from Leica), and adhered gently and tightly to the glass surface at the bottom of the chamber. […] Further, there is an excellent effect that in the space sandwiched by the metal guides, the perfusion solution flows smoothly as a laminar flow and quick solution exchange is possible.
A perfusion solution feeding system is equipped with one 60 mL cylinder for a control solution and five 10 mL cylinders for agent feeding, which can be switched as needed by a magnetic valve to allow perfusion. In experiments according to the present invention, a 5.6 mM glucose-containing HEPES solution for image acquisition was administered using the 60 mL cylinder and a mixed solution of 2-PBLG/2-NBDLG/2-TRLG, a mixed solution of 2-PBDG/2-TRLG, or a mixed solution of 2-PBLG/2-TRLG was administered using one of the five 10 mL cylinders. As described below, to avoid generation of bubbles in the perfusion chamber, both the solutions were heated beforehand, combined in one tube before being introduced into the perfusion chamber, the flow rate thereof being controlled by a flow rate controller, then, heated again by an inline heater and fed to the perfusion chamber on the confocal microscope.
A laser scan confocal microscope (manufactured by Leica, TCS-SP5 system, microscope body is DMI6000 CS trino electromotive inverted microscope) was used in conventional mode. Regarding laser used, a 405 nm diode laser was used for excitation of 2-PBLG and 2-PBDG, excitation of a mixed solution of 2-PBLG (or 2-PBDG) and 2-TRLG with a single light source, or live staining of nucleus by DAPI. The irradiation intensity was appropriately adjusted in accordance with the fluorescent pigment used so as to obtain sufficient observation intensity by an acoustic optical polarization element (Acoustic Optical Tunable Filter, AOTF). 2-NBDLG and 2-TRLG were excited by 488 nm Argon laser. The scan speed was 200 Hz or 400 Hz.
In fluorescence detection, a photomultiplier detector (PMT) 1 was used for detection of blue fluorescence by 2-PBDG or 2-PBLG and images were acquired in a wavelength detection range set at 415-580 nm in the case of detection of bicolor of 2-PBLG/2-TRLG and in a wavelength detection range set at 415-500 nm in the case of detection of tricolor of 2-PBLG/2-NBDLG/2-TRLG. For detection of green fluorescence by 2-NBDLG, PMT2 (called green channel, the same shall apply hereinafter) was used in a wavelength detection range of 500-580 nm. For detection of red fluorescence by 2-TRLG, PMT3 (called red channel, the same shall apply hereinafter) was used in a wavelength detection range of 580-740 nm. […]

[3] = mixed solution 100 μM 2-PBLG and 20 μM 2-TRLG

`O=C(NC1C(O)OC(CO)[C@H](O)C1O)c1cc2cc(F)c(O)c(F)c2oc1=O` (stereo partly drawn) [2-PBLG, 2-Deoxy-2-((6,8-difluoro-7-hydroxycoumarin-3-yl)carboxamido)-L-glucose] was tested, and the “intracellular fluorescence intensity in Blue channel as compared with that before administration” value ([1]; 100 μM with 20 μM 2-TRLG, 37° C., 5 minutes, image 4 minutes after initiation of washout) was “scarcely increased”, the “persistence of intracellular blue fluorescence after washout” value ([1]; images 8 and 20 minutes after initiation of washout) was “recovered to the autofluorescence level” and the “fluorescence of cells in the cell cluster 8 minutes after initiation of washout” value [2, 3] was “scattered around the outer edge of the center of a cell cluster”. For the same compound, the “fluorescence of cells in the cell cluster 12 minutes after initiation of washout” value [2, 3] was “still multiple cells showing the strongly positive signal”, the “fluorescence of cells in the cell cluster 2 minutes after initiation of washout” value ([2]; mixed solution 100 μM 2-PBLG and 20 μM 2-TRLG, administered 5 minutes, MIN6 cluster day 13) was “extremely intense blue fluorescence is emitted from some cells” and the “fluorescence of cells in the cancer cell cluster 12 minutes after completion of administration” value ([2]; mixed solution 100 μM 2-PBLG, 100 μM 2-NBDLG, 20 μM 2-TRLG) was “emit blue fluorescence by 2-PBLG continuously”. The “fluorescence of cells in the cancer cell cluster 8 minutes after completion of administration” value ([2]; mixed solution 100 μM 2-PBLG, 100 μM 2-NBDLG, 20 μM 2-TRLG, MIN6 cluster day 13) was “intense blue fluorescence by 2-PBLG is maintained continuously”.
